Experimental data from US8088758B2, “17β-hydroxysteroid dehydrogenase type I inhibitors” (Abbott Products GmbH, priority 2003, dated 2012).

Biological target: T1, recombinant human 17β-hydroxysteroid dehydrogenase type 1 (Homo sapiens, UniProt P14061)
T1 construct: made in house; host or cells: Sf9 insect cells (baculovirus, Bac to Bac Expression System)
T1 sequence (P14061 1-328): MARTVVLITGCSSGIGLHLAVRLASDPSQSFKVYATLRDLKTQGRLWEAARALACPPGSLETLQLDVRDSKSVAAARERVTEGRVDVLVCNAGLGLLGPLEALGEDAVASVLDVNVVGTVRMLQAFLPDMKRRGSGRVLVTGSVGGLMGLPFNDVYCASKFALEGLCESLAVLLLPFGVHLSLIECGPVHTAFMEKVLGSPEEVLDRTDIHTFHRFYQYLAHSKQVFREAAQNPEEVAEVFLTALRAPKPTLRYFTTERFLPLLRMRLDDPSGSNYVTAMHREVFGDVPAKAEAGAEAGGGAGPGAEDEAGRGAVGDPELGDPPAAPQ
Assay: Inhibition of recombinant human 17β-hydroxysteroid dehydrogenase type 1 (conversion of 3H-estrone to estradiol, HPLC)
Assay type: biochemical
Settings: 30 nM 3H-estrone, 1 mM NADPH, 30 min at RT; for inhibition at 0.1 µM: inhibitor 100 nM, read-out: Inhibition of rec. 17β-HSD1 (% inhibition), 100 nM; for inhibition at 1 µM: inhibitor 1 μm, read-out: Inhibition of rec. 17β-HSD1 (% inhibition), 1 μm
Protocol: 1. Inhibition of the 17β-hydroxysteroid Dehydrogenase Type 1 Enzyme
17β-HSD1 Purification: Recombinant baculovirus was generated by the “Bac to Bac Expression System” (Invitrogen). Recombinant bacmid was transfected to Sf9 insect cells using “Cellfectin Reagent” (Invitrogen). 60 h later cells were harvested; the microsomal fraction was isolated as described by Puranen et al. 1994. Aliquots were stored frozen until determination of enzymatic activity.
Assay—Inhibition of Recombinant Human 17β-hydroxysteroid Dehydrogenase Type 1:
Recombinant protein (0.1 μg/ml) was incubated in 20 mM KH2PO4 pH 7.4 with 30 nM 3H-estrone and 1 mM NADPH for 30 min at RT, in the presence of potential inhibitors at concentrations of 1 μM or 0.1 μM. Inhibitor stock solutions were prepared in DMSO. Final concentration of DMSO was adjusted to 1% in all samples. The enzyme reaction was stopped by addition of 10% trichloroacetic acid (final concentration). Samples were centrifuged in a microtiter plate at 4000 rpm for 10 min. Supernatants were applied to reverse phase HPLC on a Waters Symmetry C18 column, equipped with a Waters Sentry Guard column. Isocratic HPLC runs were performed at RT at a flow rate of 1 ml/min of acetonitrile:water 48:52 as running solvent. Radioactivity was monitored in the eluate by a Packard Flow Scintillation Analyzer. Total radioactivity for estrone and estradiol were determined in each sample and percent conversion of estrone to estradiol was calculated according to the following formula:
Percent inhibition was calculated as follows: % inhibition=100−% conversion

Row | SMILES | inhibition at 0.1 µM | inhibition at 1 µM
1 | COc1ccc2c(c1)CC[C@H]1[C@@H]3[C@H](CCC(=O)NCc4cccc(F)c4)CC(=O)[C@@]3(C)CC[C@H]21 [Example 322] | 45.7% | 66.3%
2 | COc1ccc2c(c1)CC[C@H]1[C@@H]3[C@H](CCCC(=O)NCc4ccco4)CC(=O)[C@@]3(C)CC[C@H]21 [Example 7] | 28.7% | 63.4%
3 | COc1ccc2c(c1)CC[C@H]1[C@@H]3[C@H](CCCCCC(=O)N4CCSCC4)CC(=O)[C@@]3(C)CC[C@H]21 [Example 355] | 34.4% | 85.1%
4 | COc1ccc2c(c1)CC[C@H]1[C@@H]3[C@H](CCCCC(=O)NCc4ccncc4)CC(=O)[C@@]3(C)CC[C@H]21 [Example 339] | 25.9% | 82.9%
5 | COc1ccc2c(c1)CC[C@H]1[C@@H]3[C@H](CCCCCC(=O)NCc4ccccc4OC)CC(=O)[C@@]3(C)CC[C@H]21 [Example 360] | 41.5% | 85.6%
6 | COc1ccc2c(c1)CC[C@H]1[C@@H]3[C@H](CCCCCC(=O)NCc4ccc5c(c4)OCO5)CC(=O)[C@@]3(C)CC[C@H]21 [Example 353] | 46.3% | 89.5%
7 | C[C@]12CC[C@@H]3c4ccc(O)cc4CC[C@H]3[C@@H]1[C@@H](CNS(=O)(=O)c1cc(S(=O)(=O)c3ccccc3)cs1)CC2=O [Example 679] | 26.5% | 74.6%
8 | C[C@]12CC[C@@H]3c4ccc(O)cc4CC[C@H]3[C@@H]1[C@H](CCCC(=O)NCc1ccccc1)CC2=O [Example 3A, N-Benzyl-4-(3-hydroxy-17-oxo-estra-1,3,5(10)-trien-15β-yl)-butyramide] | 51.6% | 84.1%
9 | COc1cccc(NC(=O)NCCC[C@@H]2CC(=O)[C@@]3(C)CC[C@@H]4c5ccc(OC)cc5CC[C@H]4[C@H]23)c1 [Example 443] | 39.8% | 84.1%
10 | CN(C[C@H]1CC(=O)[C@@]2(C)CC[C@@H]3c4ccc(O)cc4CC[C@H]3[C@H]12)S(=O)(=O)c1ccccc1 [Example 684] | 31.3% | 86.9%
11 | C[C@]12CC[C@@H]3c4ccc(O)cc4CC[C@H]3[C@@H]1[C@H](CCCC(=O)NCc1ccc(F)cc1F)CC2=O [Example 37, N-(2,4-Difluoro-benzyl)-4-(3-hydroxy-17-oxo-estra-1,3,5(10)-trien-15β-yl)-butyramide] | 47.4% | 87.2%
12 | CN(C[C@H]1CC(=O)[C@@]2(C)CC[C@@H]3c4ccc(O)cc4CC[C@H]3[C@H]12)S(=O)(=O)c1cc(S(=O)(=O)c2ccccc2)cs1 [Example 696] | 35.7% | 80.5%
13 | COc1ccc2c(c1)CC[C@H]1[C@@H]3[C@H](CCCNC(=O)NC4CCCCC4)CC(=O)[C@@]3(C)CC[C@H]21 [Example 450] | 34% | 80.7%
14 | COc1ccc2c(c1)CC[C@H]1[C@@H]3[C@H](CCCCCC(=O)NC4CCCCC4)CC(=O)[C@@]3(C)CC[C@H]21 [Example 348] | 30.5% | 82.4%
15 | COc1ccc2c(c1)CC[C@H]1[C@@H]3[C@H](CCCCCC(=O)NCCc4c[nH]c5c(C)cccc45)CC(=O)[C@@]3(C)CC[C@H]21 [Example 367] | 51.5% | 73.5%
16 | COc1ccc2c(c1)CC[C@H]1[C@@H]3[C@H](CCC(=O)N(C)C4CCCCC4)CC(=O)[C@@]3(C)CC[C@H]21 [Example 313] | 62.6% | 93%
17 | C[C@]12CC[C@@H]3c4ccc(O)cc4CC[C@H]3[C@@H]1[C@@H](CNS(=O)(=O)c1ccccc1)CC2=O [Example 664] | 60.5% | 92.7%
18 | COc1ccc2c(c1)CC[C@H]1[C@@H]3[C@H](CCCNC(=O)NCc4ccccc4)CC(=O)[C@@]3(C)CC[C@H]21 [Example 452] | 38.6% | 82.9%
